# Measured values as given in PubChem BioAssay (NCI).
#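 Following 48 hours of exposure in 96-well plates, responses at five concentrations were used to interpolate endpoints linearly. TGI marks complete inhibition of growth.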
# Key:
# Experiment in all cases: growth of human tumour cells (NCI), 48 h
# 786-0 renal = test system: 786-0 renal
# A498 renal = test system: A498 renal
# A549 NSCLC = test system: A549 NSCLC
# ACHN renal = test system: ACHN renal
# BT-549 breast = test system: BT-549 breast
# CAKI-1 renal = test system: CAKI-1 renal
# COLO 205 colon = test system: COLO 205 colon
# DU-145 prostate = test system: DU-145 prostate
# EKVX NSCLC = test system: EKVX NSCLC
# HCT-116 colon = test system: HCT-116 colon
# HCT-15 colon = test system: HCT-15 colon
# HL-60(TB) leukemia = test system: HL-60(TB) leukemia
# HOP-62 NSCLC = test system: HOP-62 NSCLC
# HOP-92 NSCLC = test system: HOP-92 NSCLC
# HS 578T breast = test system: HS 578T breast
# HT29 colon = test system: HT29 colon
# IGROV1 ovarian = test system: IGROV1 ovarian
# K-562 leukemia = test system: K-562 leukemia
# KM12 colon = test system: KM12 colon
# LOX IMVI melanoma = test system: LOX IMVI melanoma
# M14 melanoma = test system: M14 melanoma
# MALME-3M melanoma = test system: MALME-3M melanoma
# MCF7 breast = test system: MCF7 breast
# MDA-MB-231 breast = test system: MDA-MB-231 breast
# MDA-MB-435 = test system: MDA-MB-435
# MDA-N = test system: MDA-N
# MOLT-4 leukemia = test system: MOLT-4 leukemia
# NCI-H226 lung = test system: NCI-H226 lung
# NCI-H460 lung = test system: NCI-H460 lung
# NCI-H522 lung = test system: NCI-H522 lung
# NCI/ADR-RES ovarian = test system: NCI/ADR-RES ovarian
# OVCAR-3 ovarian = test system: OVCAR-3 ovarian
# OVCAR-4 ovarian = test system: OVCAR-4 ovarian
# OVCAR-5 ovarian = test system: OVCAR-5 ovarian
# OVCAR-8 ovarian = test system: OVCAR-8 ovarian
# PC-3 prostate = test system: PC-3 prostate
# RPMI-8226 leukemia = test system: RPMI-8226 leukemia
# RXF 393 renal = test system: RXF 393 renal
# SF-268 CNS = test system: SF-268 CNS
# SF-295 CNS = test system: SF-295 CNS
# SF-539 CNS = test system: SF-539 CNS
# SK-MEL-2 melanoma = test system: SK-MEL-2 melanoma
# SK-MEL-28 melanoma = test system: SK-MEL-28 melanoma
# SK-MEL-5 melanoma = test system: SK-MEL-5 melanoma
# SK-OV-3 ovarian = test system: SK-OV-3 ovarian
# SN12C renal = test system: SN12C renal
# SNB-19 CNS = test system: SNB-19 CNS
# SNB-75 CNS = test system: SNB-75 CNS
# SR leukemia = test system: SR leukemia
# SW-620 colon = test system: SW-620 colon
# T-47D breast = test system: T-47D breast
# TK-10 renal = test system: TK-10 renal
# U251 CNS = test system: U251 CNS
# UACC-257 melanoma = test system: UACC-257 melanoma
# UACC-62 melanoma = test system: UACC-62 melanoma
# UO-31 renal = test system: UO-31 renal
structure (smiles),measurement,setting,value
Cc1cc(Cc2c(C)c(C)c(Cc3cc(C)cc(C(C)(C)C)c3O)c(C)c2C)c(O)c(C(C)(C)C)c1,TGI,786-0 renal,> 100 µM
same,TGI,A498 renal,> 100 µM
same,TGI,A549 NSCLC,> 100 µM
same,TGI,ACHN renal,> 100 µM
same,TGI,BT-549 breast,> 100 µM
same,TGI,CAKI-1 renal,> 100 µM
same,TGI,COLO 205 colon,> 100 µM
same,TGI,DU-145 prostate,> 100 µM
same,TGI,EKVX NSCLC,> 100 µM
same,TGI,HCT-116 colon,> 100 µM
same,TGI,HCT-15 colon,> 100 µM
same,TGI,HL-60(TB) leukemia,83.6 µM
same,TGI,HOP-62 NSCLC,> 100 µM
same,TGI,HOP-92 NSCLC,> 100 µM
same,TGI,HS 578T breast,> 100 µM
same,TGI,HT29 colon,> 100 µM
same,TGI,IGROV1 ovarian,> 100 µM
same,TGI,K-562 leukemia,> 100 µM
same,TGI,KM12 colon,> 100 µM
same,TGI,LOX IMVI melanoma,> 100 µM
same,TGI,M14 melanoma,> 100 µM
same,TGI,MALME-3M melanoma,> 100 µM
same,TGI,MCF7 breast,> 100 µM
same,TGI,MDA-MB-231 breast,> 100 µM
same,TGI,MDA-MB-435,> 100 µM
same,TGI,MDA-N,> 100 µM
same,TGI,MOLT-4 leukemia,> 100 µM
same,TGI,NCI-H226 lung,> 100 µM
same,TGI,NCI-H460 lung,> 100 µM
same,TGI,NCI-H522 lung,> 100 µM
same,TGI,NCI/ADR-RES ovarian,> 100 µM
same,TGI,OVCAR-3 ovarian,> 100 µM
same,TGI,OVCAR-4 ovarian,> 100 µM
same,TGI,OVCAR-5 ovarian,> 100 µM
same,TGI,OVCAR-8 ovarian,> 100 µM
same,TGI,PC-3 prostate,> 100 µM
same,TGI,RPMI-8226 leukemia,> 100 µM
same,TGI,RXF 393 renal,> 100 µM
same,TGI,SF-268 CNS,> 100 µM
same,TGI,SF-295 CNS,> 100 µM
same,TGI,SF-539 CNS,> 100 µM
same,TGI,SK-MEL-2 melanoma,> 100 µM
same,TGI,SK-MEL-28 melanoma,> 100 µM
same,TGI,SK-MEL-5 melanoma,> 100 µM
same,TGI,SK-OV-3 ovarian,> 100 µM
same,TGI,SN12C renal,> 100 µM
same,TGI,SNB-19 CNS,> 100 µM
same,TGI,SNB-75 CNS,> 100 µM
same,TGI,SR leukemia,> 100 µM
same,TGI,SW-620 colon,> 100 µM
same,TGI,T-47D breast,> 100 µM
same,TGI,TK-10 renal,> 100 µM
same,TGI,U251 CNS,> 100 µM
same,TGI,UACC-257 melanoma,> 100 µM
same,TGI,UACC-62 melanoma,> 100 µM
same,TGI,UO-31 renal,> 100 µM
